For one assay, the system named is monocytes. Put plainly: Whole blood monocyte phagocytosis assay (pHrodo E. coli BioParticles, flow cytometry). The conditions noted are these: human whole blood, 1 h incubation, then pHrodo E. coli BioParticles 30 min, mean of four experiments. In kind it is cell-based. The method, then:
AnxA1 N-terminal fragments were assessed in whole blood phagocytosis assay. Whole blood from human subjects (45 μL) was incubated for 1 h with control peptide Anxa1 2-50 (100 nM) and test peptides Compound 1 (100 nM), Compound 2 (100 nM) and Compound 3 (30 nM), or vehicle in a 96-well plate. 50 μl pHrodo E. coli BioParticles Conjugate (5 μg/well) was added to the wells, and the plate was incubated at 37° C., 5% CO2 for 30 min. 150 μl of 4% PFA was added, and the plate incubated at 4° C. for 30 min. 30 μL from each well of the 96-well plate was transferred into flow cytometry tubes with 500 μL RPMI 1640 and 1 μL of Vybrant DyeCycle dye. Tubes were incubated for 30 min at 37° C. and 5% CO2, followed by addition of 2.5 mL of RPMI 1640 Medium in each tube.
Samples were acquired on the Attune NxT Flow Cytometer. Monocyte phagocytosis was determined as an increase in pHrodo Green fluorescence relative to control sample.
(Flow cytometry measures light scatter and fluorescence of single cells or particles in a stream.)

Assay [1] has as its system polymorphonuclear leukocytes (PMNs). The assay is described as follows: PMN (neutrophil) chemotaxis, Transwell migration, CellTiter Glo readout. Format: cell-based, human. The conditions noted are these: 10 uM compound in receiver wells; 1 h migration, 37 °C; PMNs from buffy coats of healthy volunteers. As for the experimental part: AnxA1 N-terminal fragments were assessed in polymorphonuclear leukocytes (PMNs) isolated from buffy coats of healthy volunteers. PMNs were resuspended in migration medium (RPMI1640 (ATCC, Cat. No. 30-2001)+0.05% BSA-FAF) to a concentration of 5.5×10^6 cells/mL.
Receiver wells of a Transwell plate were filled with 200 μL of migration medium with 10 uM of compound 1, 2 or 3. Donor plate was inserted and 75 μL of cell suspension was added to upper wells ([…]). Plates were incubated for 1 h (37° C., 5% CO2, 95% humidity). The number of migrated cells was assessed by removing Transwell insert with cells from the plate in order to stop migration, followed by addition of 200 μL CellTiter Glo reagent to lower wells. Plates were incubated for 10 minutes in the dark (at room temperature), and 200 μL was transferred to white 96 well plates (Lumitrac 200). Luminescence was measured by use of EnVision 2104 (Perkin Elmer) (exposition time 0.1 s)
The chemotaxis response was estimated by calculating fold change compared to negative control (vehicle).

Values joined by “and” are separate entries in the source; they are usually repeats but may differ in a detail not shown here. Equal values may be shown once.

With “AMVSEFLKQAWFIENEEQEYVQTVKSSKGGPGSAVSPYPTFNPSSDVAA (Synthetic sequence having some homology with human annexin 1) [Anxa1 2-50, reference compound]”, the “Fold increase relative to vehicle (monocyte phagocytosis)” value with monocytes (peptide 100 nM) was 1.9 fold; in the assay on monocytes (peptide 100 nM, listed as AnxA1 2-50), around 2 fold.
As for “AMVSEFLKQAWFIENEEQEYVQTLKSSKGGPGSAVSPY (Val24Leu variant of AnxA1 fragment; MISC_FEATURE - Val24Leu variant of AnxA1 fragment) [Compound 3]”, the “Fold increase relative to vehicle (PMN chemotaxis)” value in assay [1] was 1.6 fold. The “Fold increase relative to vehicle (monocyte phagocytosis)” value in the assay with monocytes (peptide 30 nM) is reported as 2.9 fold.
Consider “AMVSEFLKQAWFIENEEQEYVQTLKSSKGGPGS (Val24Leu variant of AnxA1 fragment; MISC_FEATURE - Val24Leu variant of AnxA1 fragment) [Compound 2]”, for which the “Fold increase relative to vehicle (PMN chemotaxis)” value in assay [1] is 2 fold and 2.0 fold. The “Fold increase relative to vehicle (monocyte phagocytosis)” value with monocytes (peptide 100 nM) came to 2.8 fold.
As for “AMVSEFLKQAWFIENEEQEYVQTLKSSK (Val24Leu variant of AnxA1 fragment; MISC_FEATURE - Val24Leu variant of AnxA1 fragment) [Compound 1]”, in assay [1], the “Fold increase relative to vehicle (PMN chemotaxis)” value was 3 fold and 3.1 fold. Also, the “Fold increase relative to vehicle (monocyte phagocytosis)” value with monocytes (peptide 100 nM) is listed as 2.6 fold.

The values are drawn from patent US20250388632A1, “ANNEXIN A1-DERIVED POLYPEPTIDE ANALOGUES” (RESOTHER PHARMA A/S, priority 2022, published 2025).
